Data reported in patent EP1914237B1 (priority 1999, dated 2001).
Where two headings read alike, the source gives them in different places.

How the values were obtained:
HCMV [1] = tested on: HCMV
[2] = tested on: human lung fibroblast cells (MRC-5); assay: Cytotoxicity of test compounds in vitro in MRC-5 cells (visual estimate of cell number); format: cell-based
Protocol: (§1) Cytotoxicity of test compounds in vitro: Subconfluent human lung fibroblast cells (MRC-5, American Type Culture Collection, Rockville, MD) in 24-well plates were treated with drugs diluted in E-MEM (Gibco BRL, Grand Island, NY) supplemented with 2% fetal bovine serum and antibiotics. After 5 days of incubation at 37°C, the cell monolayer was visually inspected under magnification and the concentration of drug which caused a 50% reduction in cell number was estimated.

HSV-1 = assay: microbe, parasite or virus in culture; format: cell-based
[3] = tested on: Variola Major, Bangladesh; assay: organism not typed; format: cell-based; details: read-out: EC50, µM Variola Major, Bangladesh
HFF Cells = details: human
cowpox virus = assay: microbe, parasite or virus in culture; format: cell-based; details: for IC50: read-out: IC50 in cowpox infected cells
Vero cells = details: monkey
CEM = assay: Cytotoxicity in CEM cells; details: read-out: CEM, CC50; Table 1; rapidly dividing cells
Cowpox = assay: organism not typed; format: cell-based; details: read-out: EC50, µM Cowpox
vaccinia virus = assay: microbe, parasite or virus in culture; format: cell-based; details: Orthopoxvirus vaccinia, HFF; for IC50: read-out: IC50 against vaccinia virus; for EC50: read-out: Vaccinia EC50, µM
Vaccinia = assay: microbe, parasite or virus in culture; format: cell-based; details: read-out: EC50, µM Vaccinia
in vitro = details: monkey, vero cells
HCMV [4] = assay: microbe, parasite or virus in culture; details: Human betaherpesvirus 5, MRC5
Humans with Osteoporosis = details: postmenopausal women, oral 0.1 to 100 mg/kg/day, two to three years; versus placebo
MLO-Y4 osteocytic cells = details: pretreated 1 hour, then 6 hours with 10^-4 M dexamethasone; percentage of dead cells; p<0.05
Ovariectomized Rats = details: subcutaneous 0 to 8 mg /kg/day, four to twelve weeks; versus ovariectomized controls
Calvarial cells = assay: Dexamethasone-induced apoptosis in calvarial cells (trypan blue uptake); format: cell-based, neonatal C57BL/6J mice; details: pretreated 1 hour, then 6 hours with 10^-4 dexamethasone; p=<0.05
[5] = tested on: Humans with Steroid-Induced Osteoporosis; assay: Stimulation of bone formation in humans with steroid-induced osteoporosis; format: in vivo; details: oral 0.1 to 100 mg/kg/day, one month to one year; versus placebo
HIV-1 [6] = tested on: HIV-1
[7] = Cytotoxicity of test compounds in vitro in MRC-5 cells (visual estimate of cell number); format: cell-based, human; details: human, mrc-5 cells; Table 2; MRC-5, 5 days at 37°C
Protocol: as §1

[8] = Cytotoxicity by the method of Hostetler et al. (HIV study); format: cell-based; details: human, ht4-6c cells; Table 6; cell line of the cytotoxicity test not stated
HIV-1 [9] = assay: microbe, parasite or virus in culture; details: Human immunodeficiency virus 1
Variola Major, Yamada = format: cell-based; details: Table 4; Vero cells; average of 3 determinations
Variola Minor, Garcia = format: cell-based; details: Table 4; Vero cells; average of 3 determinations
[10] = Table 7, assessed as described in Example 17, 7200 min
[11] = Table 4, Vero cells, average of 3 determinations
[12] = Table 1, against HCMV, CC50 in CEM cells
[13] = Cowpox virus, HFF, read-out: Cowpox, EC50, µM

Compound: CCCCCCCCCCCCCCCCCCOCCCOP(=O)(O)CO[C@H](CO)Cn1ccc(N)nc1=O [1-O-octadecylpropanediol-3-CDV]
- EC50 (HCMV [1]): 0.03 nM
- CC50 ([2]; Table 2, MRC-5, 5 days at 37°C): 32 µM
- CC50 [2, 10]: 32 µM
- EC50 (HSV-1; read-out: EC50): 0.003 µM

Compound: CCCCCCCCCCCCCCCCOCCCOP1(=O)COC(Cn2ccc(N)nc2=O)CO1 (stereo not drawn) [HDP-cCDV, 1-O-hexadecylpropanediol-3-cyclic CDV]
- EC50 [3, 11]: > 0.01 µM
- EC50 (HCMV [1]): 0.3 nM
- EC50 (HCMV [1]; read-out: HCMV EC50): 0.5 nM
- CC50 ([2]; Table 2, MRC-5, 5 days at 37°C): 320 µM
- CC50 [2, 10]: 320 µM
- CC50 (HFF Cells): > 100 µM
- EC50 (cowpox virus; Table 3, preliminary, HFF cells, CPE reduction, read-out: Cowpox, EC50): < 0.03 µM
- IC50 (cowpox virus; Table 3): < 0.03 µM
- CC50 (Vero cells): > 0.1 µM
- EC50 (HSV-1; read-out: EC50): 0.03 µM
- CC50 (CEM): 30 µM
- EC50 (Cowpox; [11]): < 0.03 µM

Compound: Nc1ccn(C[C@@H](CO)OCP(=O)(O)O)c(=O)n1 [CDV, cidofovir]
- EC50 ([3]; Vero): 100 µM
- IC50 (vaccinia virus): 1.8 µM
- EC50 (vaccinia virus): 1.8 µM
- Selectivity Index (HCMV [1]; [12]): 1,900
- CC50 ([2]; Table 2, MRC-5, 5 days at 37°C): > 1000 µM
- CC50 [2, 10]: > 1000 µM
- CC50 (HFF Cells): 89.8 µM
- EC50 (Vaccinia; Orthopoxvirus vaccinia, Vero): 2.2 µM
- EC50 (cowpox virus; [13]): 2.1 µM
- IC50 (cowpox virus; Cowpox virus, HFF): 2.1 µM
- CC50 (in vitro): > 100 µM
- EC50 (HSV-1; Human alphaherpesvirus 1, MRC5): 1.2 µM
- EC50 (HCMV [4]): 0.46 µM
- CC50 (CEM): 857 µM
- EC50 (Cowpox; Vero): 3.8 µM

Compound: CCCCCCCCCCCCCCCCCCOCCCOP(=O)(O)C(O)(CCCN)P(=O)(O)O (stereo not drawn) [1-O-octadecyloxypropyl alendronate, 1-O-octadecyloxypropyl-alendronate]
- fractures (Humans with Osteoporosis): fewer fractures
- rate of reduction in bone density (Humans with Osteoporosis): a lesser rate of reduction in bone density than the placebo group

Compound: CCCCCCCCCCCCCCCCCCOCCCOP1(=O)COC(Cn2ccc(N)nc2=O)CO1 (stereo not drawn) [1-O-octadecylpropanediol-3-cCDV]
- EC50 (HCMV [1]): 0.3 nM
- CC50 ([2]; Table 2, MRC-5, 5 days at 37°C): 320 µM
- CC50 [2, 10]: 320 µM
- EC50 (HSV-1; read-out: EC50): 0.33 µM

Compound: CCCCCCCCCCCCCCCCCCOCCOP(=O)(O)COC(CO)Cn1ccc(N)nc1=O (stereo not drawn) [1-O-octadecylethanediol-2-CDV]
- CC50 ([2]; Table 2, MRC-5, 5 days at 37°C): 210 µM
- CC50 [2, 10]: 210 µM
- EC50 (HSV-1; read-out: EC50): 0.002 µM

Compound: CCCCCCCCCCCCCCCCOP1(=O)COC(Cn2ccc(N)nc2=O)CO1 (stereo not drawn) [Hexadecyl-cCDV]
- EC50 (HCMV [1]): 40 nM
- CC50 ([2]; Table 2, MRC-5, 5 days at 37°C): 6.5 µM

Compound: CCCCCCCCCCCCCCCCOCCCOP(=O)(O)C(O)(CCCN)P(=O)(O)O (stereo not drawn) [HDP-alendronate, 1-O-hexadecylpropanediol-3-alendronate]
- concentration at which dexamethasone-induced apoptosis is inhibited (MLO-Y4 osteocytic cells): 10^-8 to 10^-5 M
- bone mass loss (ash weight of the femora) (Ovariectomized Rats): less bone mass loss than the ovariectomized controls
- concentration at which the dexamethasone-induced increase in % dead cells is abolished (Calvarial cells): ≥ 10^-8

Compound: 1-O-octadecyloxypropyl-amino-olpadronate
- bone density [5]: bone density is increased
- fractures [5]: fractures are decreased

Compound: 1-O-octadecyl-sn-glyceryl-3-adefovir [1-O-octadecyl-sn-glycero-3-ADV]
- EC50 (HCMV [1]): 210 nM

Compound: Nc1ccn(C[C@H]2COP(=O)(O)CO2)c(=O)n1 [cCDV, cyclic cidofovir]
- EC50 ([3]; Vero): 100 µM
- IC50 (vaccinia virus): 0.97 µM
- EC50 (vaccinia virus): 0.97 µM
- Selectivity Index (HCMV [1]; [12]): >2,100
- CC50 ([2]; Table 2, MRC-5, 5 days at 37°C): > 1000 µM
- CC50 [2, 10]: > 1000 µM
- CC50 (HFF Cells): > 100 µM
- EC50 (cowpox virus; [13]): 0.72 µM
- IC50 (cowpox virus; Cowpox virus, HFF): 0.72 µM
- CC50 (Vero cells): > 100 µM
- EC50 (HSV-1; Human alphaherpesvirus 1, MRC5): 2.1 µM
- EC50 (HCMV [4]): 0.47 µM
- CC50 (CEM): > 1000 µM

Compound: CCCCCCCCCCCCCCCCOCCCOP(=O)(O)COCCn1cnc2c(N)ncnc21 [HDP-Adefovir]
- Selectivity Index (HCMV [1]): 65
- EC50,µM (HIV-1 [6]): more active and selective than adefovir
- Selectivity Index (HIV-1 [6]): 813
- CC50 at 120 h [7]: 6.5 µM
- CC50 [8]: 6.5 µM
- EC50 (HCMV [4]): 0.1 µM
- EC50 (HIV-1 [9]): 0.008 µM

Compound: CCCCCCCCCCCCCCCCCCOCCOP1(=O)COC(Cn2ccc(N)nc2=O)CO1 (stereo not drawn) [1-O-octadecylethanediol-2-cCDV]
- EC50 (HCMV [1]): 0.3 nM
- CC50 ([2]; Table 2, MRC-5, 5 days at 37°C): 320 µM
- CC50 [2, 10]: 320 µM
- EC50 (HSV-1; read-out: EC50): 0.008 µM

Compound: CCCCCCCCCCCCCCCCOCCCOP(=O)(O)CO[C@H](CO)Cn1ccc(N)nc1=O [HDP-CDV]
- EC50 [3, 11]: 0.0015 µM
- EC50 (Variola Major, Yamada): 0.0015 µM
- EC50 (Variola Minor, Garcia): 0.0006 µM
- EC50 (HCMV [1]): 0.002 nM
- CC50 ([2]; Table 2, MRC-5, 5 days at 37°C): 10 µM
- CC50 [2, 10]: 10 µM
- EC50 (Vaccinia; [11]): < 0.03 µM
- CC50 (Vero cells): > 0.1 µM
- EC50 (Cowpox; [11]): < 0.03 µM
